Measured values from patent US20120157519A1 (priority 2009, published 2012).

Legend:
[1] = tested on: phosphorylated Akt (PI3k-Akt signaling); type: cell-based, canine
[2] = tested on: H1N1 (swine) influenza virus; type: cell-based, swine influenza H1N1v virus
[3] = tested on: H1N1 influenza virus; set-up: species or system BALB/c mice; conditions: mouse, in vivo
[4] = tested on: 721.221 target cells; type: cell-based; conditions: effector cells pre-incubated 24 hours with AS101; high concentrations less effective than moderate
[5] = tested on: H5N1 influenza virus; set-up: species or system BALB/c mice; conditions: mouse, in vivo
[6] = tested on: INFγ; type: in vivo, mice; conditions: treated 24 hours before infection, six days after infection
[7] = tested on: human immunodeficiency virus type 1 (HIV-1); conditions: Vonsover et al., AIDS Res Hum Retroviruses 1992; cited from earlier work
[8] = tested on: primary NK cells; type: cell-based; conditions: 24 hours incubation, 0.1-5 μg/ml, supernatant ELISA
[9] = tested on: mouse cytomegalovirus (MCMV); conditions: Sredni et al., Immunol Lett 1994; cited from earlier work
[10] = tested on: MDCK cells
[11] = tested on: YTS cells; type: cell-based
[12] = tested on: H5N1 virus; type: cell-based

SMILES | level of phosphorylated Akt, AS101 treatment alone [1] | level of phosphorylated Akt, cells infected with H5N1 virus ([1]; MDCK cells, 2 μg/ml, 10^2×TCID50 H5N1, 24 hours) | H1N1 virus infection, administered concomitantly with the virus [2] | H1N1 virus infection, each tested administration time [2] | replication of H1N1 influenza virus (viral titer by ELISA) [2] | H1N1 virus in infected mice (lung titer, real-time RT-PCR) [3] | H1N1 virus titers in the lungs, each tested administration time [3] | NK killing of target cells [4] | H5N1 virus in infected mice (lung titer, real-time RT-PCR) [5] | H5N1 virus titers in the lungs, each tested administration time [5] | body weight loss after infection ([5]; ip) | interferon secretion in lungs of H5N1 infected mice [6] | effect against human immunodeficiency virus type 1 (HIV-1) [7] | IFN-γ secretion by primary NK cells [8] | effect against mouse cytomegalovirus (MCMV) [9] | toxicity to the cells (MTT) [10] | AS101 concentration at which the effect on IFN-γ secretion decreased [11] | IFN-γ secretion by YTS cells [11] | protection of cells from viral infection by supernatant of treated cells [12]
Cl[TeH]1(Cl)(Cl)OCCO1 [AS101, ammonium trichloro(dioxyethylene-O,O′)tellurate] | increased | dramatically reduced levels | strongest inhibition | inhibition | significant inhibition | significant inhibition | significantly reduced | increased NK killing | significant inhibition | significantly reduced | weight loss was reduced somewhat | restored interferon secretion to the levels observed in uninfected mice | inhibitory effect | increased secretion | inhibitory effect | not toxic | above 1 μg/ml | increased secretion | can protect cells from viral infection
CCOC(=O)C1=C[C@@H](OC(CC)CC)[C@H](NC(C)=O)[C@@H](N)C1 [oseltamivir, reference compound] |  |  |  |  |  | Inhibition |  |  |  |  |  |  |  |  |  |  |  |  | 
